Source: patent publication US9499486B2, “Kinase inhibitor” (RESPIVERT LIMITED, priority 2014, dated 2016)
Values joined by “and” are separate entries in the source; they are usually repeats but may differ in a detail not shown here. Identical values can stand only once. Counter-ions that a name gives are not always drawn. Like-named read-outs stand apart in the source and are kept apart here.

Columns and labels:
[1] = Solubility in fasted-state simulated colonic fluid (FaSSCoF); format: physicochemical; conditions: pH 6.5, 25° C., 24 h; for solubility thermodynamic at 24 h: fasted-state simulated colonic fluid (FaSSCoF), 25 °C, pH 6.5, fassgf or other biorelevant, thermodynamic from solid
Protocol: The solubility of the compound of the invention in FaSSCoF at pH 6.5 is determined using a modification of a previously-reported procedure (Vertzoni, M., et al. Pharm. Res. 2010, 27, 2187-2196). In place of the bile salt extract employed in the original procedure (which extract is no longer available), the modified procedure uses a mixture of sodium taurochlorate (0.15 g), glycocholic acid (0.15 g), ursodeoxycholic acid (0.05 g), cholic acid (0.05 g), and glycodeoxycholic acid (0.05 g). These five bile acids are ground together with a mortar and pestle to produce a fine white powder that is incorporated into the FaSSCoF, as outlined below.
FaSSCoF medium: Tris(hydroxymethyl)aminomethane (Tris; 0.275 g) and maleic acid (0.44 g) are dissolved in water (35 mL) to give a solution whose pH is adjusted to 6.5 by treatment with 0.5M NaOH (ca. 12 mL). The solution is then made up to 50 mL with water. A portion of this Tris/maleate buffer solution (ca. 25 mL) is added to a 0.5 L round-bottomed flask, before being treated with 0.00565 g of the bile acid mixture described above. Solutions of phosphatidylcholine (0.0111 g) in DCM (0.15 mL) and palmitic acid (0.0013 g) in DCM (0.15 mL) are added, then the organic solvent is evaporated off under reduced pressure at 40° C. until a clear solution, with no perceptible DCM odour, is achieved. The volume of the evaporated solution is adjusted to 50 mL by addition of the remainder of Tris/maleate buffer, then BSA (0.115 g) is added, before being dissolved by gentle agitation.
Solubility Determination: Test compounds are suspended in the pH 6.5 FaSSCoF medium to give a maximum final concentration of 2-10 mg/mL. The suspensions are equilibrated at 25° C. for 24 h, before being filtered through a glass fibre C filter. The filtrates are then diluted as appropriate for injection and quantification by HPLC with reference to a standard. Different volumes of the standard, diluted and undiluted sample solutions are injected and the solubilities are calculated using the peak areas determined by integration of the peak found at the same retention time as the principal peak in the standard injection.

[2] = Stability of pharmaceutical formulations (1 mg/mL solutions); format: physicochemical; conditions: for Original Purity: 1 mg/mL in pH 7.2 phosphate buffer, 4.5% mannitol, 3% polyoxyl 40 stearate, before storage; for Osmolality / pH: 1 mg/mL stock solution; for Purity at week n = 1 / Purity at week n = 2 / Purity at week n = 4: 1 mg/mL solution
Protocol: The samples were sonicated to achieve clear solutions having the following properties: Osmolality (mOsm/kg): 310 (Na), 314 (HCl); pH: 7.00 (Na), 7.05 (HCl). 0.5 mL of the stock solutions were diluted to 1 mL with 20% DMSO in water & injected for purity analysis by HPLC. The remaining stock solutions were then split into aliquots of 0.5 mL in HPLC vials, and stored at various conditions in duplicate. Samples were stored at 5 and 25° C., before being analysed by HPLC at 1, 2 and 4 weeks. Separate samples were stored at 40° C. and analysed at 4 weeks.

[3] = Systemic pharmacokinetics and total colon tissue distribution after single oral administration; format: in vivo, mouse; conditions: male, C57BL/6, mouse, mice, oral 5 mg/kg, compound 1 measured
Protocol: Studies were conducted by Sai Life Sciences (Hinjewadi, Pune, India) to investigate the systemic pharmacokinetics and total colon tissue distribution of the compound of the invention. In particular, pharmacokinetic studies were carried out in male C57BL/6 mice following a single oral administration of the compound.

non-mutant kinases = format: binding; conditions: for number of individual kinase hits, S(1): % Ctrl <1; for number of individual kinase hits, S(10): % Ctrl <10; for number of individual kinase hits, S(35): % Ctrl <35
Excerpt: These assays may be conducted by DiscoverX (formerly Ambit; San Diego, Calif.).

Jurkat cells = test: Cell cytotoxicity assay (assay r); format: cell-based, human; conditions: 24 hours
Protocol: 1×10^5 Jurkat cells (immortalised human T lymphocytes) are added to the appropriate number of wells of a 96 well plate in 100 μL of media (RPMI supplemented with 10% foetal bovine serum). 1 μL of DMSO control (final concentration 1.0% v/v) or test compound (final concentration 20, 5 or 1 μg/mL) is added to the wells and incubated at 37° C., 5% CO2. After 24 hours, the plate is centrifuged at 1200 rpm for 3 minutes and the supernatant discarded. Cells are then resuspended in 150 μL (final concentration 7.5 μg/mL) of propidium iodide (PI) in PBS and incubated at 37° C., 5% CO2 for 15 minutes. After 15 minutes, cells are analysed by flow cytometry (BD accuri) using the FL3 window. The % viability is calculated as the % of cells that are PI negative in the test wells normalised to the DMSO control.

[4] = read-out: pH 6.5 FaSSCoF Solubility Run 1
[5] = listed as Example 1, hydrochloride salt
[6] = stored at 5 ° C., listed as Example 1, hydrochloride salt
[7] = stored at 25 ° C., listed as Example 1, hydrochloride salt
[8] = plasma, read-out: Mean plasma concentration
[9] = total colon, read-out: Mean total colon level
[10] = listed as Example 1, sodium salt
[11] = stored at 5 ° C., listed as Example 1, sodium salt
[12] = stored at 25 ° C., listed as Example 1, sodium salt

For `COc1cc(Nc2cc(Oc3ccc(NC(=O)Nc4cc(C(C)(C)C)cc(NS(C)(=O)=O)c4OC)c4ccccc34)ccn2)ccc1C(=O)O` [1 (hydrochloride salt), 4-((4-((4-(3-(5-(tert-Butyl)-2-methoxy-3-(methylsulfonamido)phenyl)ureido)naphthalen-1-yl)oxy)pyridin-2-yl)amino)-2-methoxybenzoic acid], the solubility thermodynamic at 24 h [1, 4] was 16 µg/mL, the “pH 6.5 FaSSCoF Solubility Run 2” value [1] was 0.015 mg/mL and the “Original Purity” value [2, 5] was 98.1%. For the same compound, the Osmolality [2, 5] was 314 mOsm/kg, the pH [2, 5] was 7.05 and the “Purity at week n = 1” value [2, 6] was 98.2%. For the same compound, the “Purity at week n = 2” value [2, 6] was 98.1% and 98.0%, the “Purity at week n = 4” value [2, 6] was 97.9% and 98.0% and the “Purity at week n = 1” value [2, 7] was 98.0%. The “Purity at week n = 2” value [2, 7] was 97.7% and 97.6%, the “Purity at week n = 4” value [2, 7] was 97.2% and 97.4% and the “Purity at week n = 4” value ([2]; stored at 40 ° C., listed as Example 1, hydrochloride salt) was 79.2% and 80.4%.
With `COc1cc(Nc2cc(Oc3ccc(NC(=O)Nc4cc(C(C)(C)C)cc(NS(C)(=O)=O)c4OC)c4ccccc34)ccn2)ccc1C(=O)O` [1 (sodium salt), 4-((4-((4-(3-(5-(tert-Butyl)-2-methoxy-3-(methylsulfonamido)phenyl)ureido)naphthalen-1-yl)oxy)pyridin-2-yl)amino)-2-methoxybenzoic acid] the solubility thermodynamic at 24 h [1, 4] was 31 µg/mL, the “pH 6.5 FaSSCoF Solubility Run 2” value [1] was 0.032 mg/mL and the “pH 6.5 FaSSCoF Solubility Run 3” value [1] was 0.020 mg/mL. For the same compound, the “pH 6.5 FaSSCoF Solubility Run 4” value [1] was 0.025 mg/mL, the concentration at 0.5 h [3, 8] was 44.9 ng/mL and the concentration at 1 h [3, 8] was 49.2 ng/mL. It also gave a concentration at 2 h [3, 8] of 13 ng/mL, a concentration at 4 h [3, 8] of 5.2 ng/mL and a concentration at 6 h [3, 8] of 1.9 ng/mL. The concentration at 8 h [3, 8] was 0.6 ng/mL, the concentration at 12 h [3, 8] was 5.3 ng/mL and the concentration at 24 h [3, 8] was 0 ng/mL. For the same compound, the concentration at 0.5 h [3, 9] was 4.3 ng/g, the concentration at 1 h [3, 9] was 9.3 ng/g and the concentration at 2 h [3, 9] was 52.4 ng/g. The concentration at 4 h [3, 9] was 10400 ng/g, the concentration at 6 h [3, 9] was 4050 ng/g and the concentration at 8 h [3, 9] was 12900 ng/g. For the same compound, the concentration at 12 h [3, 9] was 535 ng/g, the concentration at 24 h [3, 9] was 41.4 ng/g and the “Original Purity” value [2, 10] was 98.6% and 98.5%. For the same compound, the Osmolality [2, 10] was 310 mOsm/kg, the pH [2, 10] was 7.00 and the “Purity at week n = 1” value [2, 11] was 98.2% and 98.4%. The “Purity at week n = 2” value [2, 11] was 98.4% and 98.5%, the “Purity at week n = 4” value [2, 11] was 98.3% and 98.4% and the “Purity at week n = 1” value [2, 12] was 98.4% and 98.5%. The “Purity at week n = 2” value [2, 12] was 98.1%, the “Purity at week n = 4” value [2, 12] was 97.6% and the “Purity at week n = 4” value ([2]; stored at 40 ° C., listed as Example 1, sodium salt) was 76.0% and 73.7%.
`C#Cc1cc(Nc2nccc(Oc3ccc(NC(=O)Nc4cc(C(C)(C)C)nn4-c4ccc(C)cc4)c4ccccc34)n2)cc(C(=O)NCCOCCOCCOC)c1` [Reference Compound A, 3-((4-((4-(3-(3-(tert-butyl)-1-(p-tolyl)-1H-pyrazol-5-yl)ureido)naphthalen-1-yl)oxy)pyrimidin-2-yl)amino)-5-ethynyl-N-(2-(2-(2-methoxyethoxy)ethoxy)ethyl)benzamide, reference compound] gave a solubility thermodynamic at 24 h [1, 4] of under 1 µg/mL and a solubility thermodynamic at 24 h ([1]; read-out: pH 6.5 FaSSCoF Solubility Run 2) of under 1 µg/mL.
With `COCC(=O)Nc1cc(Oc2ccc(NC(=O)Nc3cc(C(C)(C)C)nn3-c3ccc(C)cc3)c3ccccc23)ccn1` [Reference Compound, reference compound] the “number of individual kinase hits, S(1)” value (non-mutant kinases; 50 nM) was 7, the “number of individual kinase hits, S(10)” value (non-mutant kinases; 50 nM) was 32 and the “number of individual kinase hits, S(35)” value (non-mutant kinases; 50 nM) was 67. For the same compound, the “number of individual kinase hits, S(1)” value (non-mutant kinases; 500 nM) was 45, the “number of individual kinase hits, S(10)” value (non-mutant kinases; 500 nM) was 105 and the “number of individual kinase hits, S(35)” value (non-mutant kinases; 500 nM) was 143. For the same compound, the “% Viability at 1 μg/mL” value (Jurkat cells; 1 μg/mL) was 23.5%, the “% Viability at 5 μg/mL” value (Jurkat cells; 5 μg/mL) was 18.9% and the “% Viability at 20 μg/mL” value (Jurkat cells; 20 μg/mL) was 17.3%.
